According to PubChem BioAssay AID1259321 (Sanford-Burnham Center for Chemical Genomics, 2017):
The source made the active and inactive calls.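 Rule for the calls: active = half-maximal concentration for changing protein binding to DNA, from the fitted dose curve, below 10 micromolar; inactive = the rest.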

Molecular target: Nuclear receptor subfamily 1 group D member 1 (Homo sapiens) (UniProt P20393)
Assay: Rev-erbα–DNA interaction modulators – biochemical, FITC-DNA, fluorescence polarization, dose response (AID 1259321)
Settings: Rev-erb alpha-FITC-DNA binding

Sequence of Nuclear receptor subfamily 1 group D member 1 (Homo sapiens) (P20393 whole entry, looked up): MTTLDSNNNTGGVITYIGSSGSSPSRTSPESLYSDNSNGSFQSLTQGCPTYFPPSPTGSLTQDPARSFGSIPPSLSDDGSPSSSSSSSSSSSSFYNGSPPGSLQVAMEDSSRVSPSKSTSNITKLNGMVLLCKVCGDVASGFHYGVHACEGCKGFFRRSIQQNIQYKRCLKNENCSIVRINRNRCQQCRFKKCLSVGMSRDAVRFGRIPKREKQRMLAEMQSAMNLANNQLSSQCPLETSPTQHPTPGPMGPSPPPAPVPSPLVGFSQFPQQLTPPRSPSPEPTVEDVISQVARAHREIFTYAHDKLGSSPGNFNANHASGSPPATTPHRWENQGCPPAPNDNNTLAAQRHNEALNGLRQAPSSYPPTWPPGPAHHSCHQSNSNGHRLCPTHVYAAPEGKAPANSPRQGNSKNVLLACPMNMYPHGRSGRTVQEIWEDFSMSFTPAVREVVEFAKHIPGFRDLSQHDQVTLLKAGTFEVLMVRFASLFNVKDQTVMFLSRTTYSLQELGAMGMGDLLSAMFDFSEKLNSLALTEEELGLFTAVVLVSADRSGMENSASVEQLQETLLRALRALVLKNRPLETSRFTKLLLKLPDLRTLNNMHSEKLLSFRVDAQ

SMILES | IC50
N#Cc1c(N)nc(N2CCCC2)c(C#N)c1-c1ccc(Cl)cc1 | 4.99 µM
COc1cc(C(=O)Nc2nnc(-c3sccc3C)s2)cc(OC)c1OC | 4.24 µM
O=C(CCCn1c(=S)[nH]c2cc3c(cc2c1=O)OCO3)NCc1cccc(Cl)c1 | > 40 µM (inactive)
CC(C)Cc1nc2sc3c(SCC(N)=O)ncnc3c2c2c1CCC2 | 3.65 µM
CCC(=O)c1cn(CC(=O)Nc2ccc(C)cc2C)c2ccccc12 | 1.36 µM
CN1C(=O)c2cc(NC(=O)Nc3ccccc3)ccc2OC[C@H]2O[C@@H](CC(=O)NC3CCC3)CC[C@@H]21 | inactive
COC(=O)c1ccc(N/C=C\C(=O)c2ccc3c(c2)OCO3)cc1 | 7.08 µM
CCc1cc2cc3c(cc2nc1SCC(=O)Nc1nccs1)OCO3 | > 40 µM (inactive)
N#Cc1c(N)nc(SCC(=O)NCCc2ccccc2)c(C#N)c1-c1cccs1 | 1.31 µM
COc1ccccc1N=Nc1c(O)[nH]c(=S)[nH]c1=O | > 40 µM (inactive)
CCOC(=O)COc1c(Cl)cc(C2NC(=S)NC(c3ccccc3)=C2C(C)=O)cc1OCC (stereo not given) | 1.16 µM
Cc1nn(C)c(C)c1NC(=O)CSc1nc(-c2ccccc2F)nc2c1cnn2-c1ccccc1 | 3.21 µM
CC1(Cc2ccccc2C#N)C(=O)Nc2ccc(-c3ccccc3)cc21 (stereo not given) | 6.27 µM
Cc1ccc(-c2cc(C(F)F)nc3sc4c(=O)[nH]cnc4c23)cc1 | 6.05 µM
CN1C(=O)c2ccc(C(=O)Nc3ccc(Br)cn3)cc2C1=O | > 40 µM (inactive)
CN(C)/C=N/C1=C(C#N)C(c2cccs2)c2ccc3ccccc3c2O1 (stereo not given) | 3.95 µM
COc1ccc(NC(=O)c2ccc(C(=O)c3cc(OC)ccc3OC)cc2)cc1 | 1.67 µM
COc1cc2[nH]c(=S)nc(NCCc3ccc(C)cc3)c2cc1OC | > 40 µM (inactive)
Cc1ccc(NC(=O)c2sc(Cl)nc2-c2ccccc2)cc1C | inactive
COc1ccc(OC)c(Nc2nc(-c3ccccc3O)nc3ccccc23)c1 | 9.61 µM
CCc1cc2cc3c(cc2nc1SCC(=O)Nc1cc(C)on1)OCO3 | 3.31 µM
CCc1nnc(NC(=O)CSc2nc3cc4c(cc3cc2CC)OCCO4)s1 | 3.66 µM
COc1ccc(CCn2c(O)c(C=Nc3ccc(F)cc3)c(=O)[nH]c2=O)cc1OC | inactive
COc1cccc(C(=O)CSc2nnc(-c3cc(OC)cc(OC)c3)o2)c1 | inactive
CCOc1ccc2cc(C#N)c(SCC(=O)OC)nc2c1 | 3.74 µM
COc1ccc(-c2ccc3sc4ccccc4c(=O)c3c2)cn1 | 3.24 µM
CC1(C)Cc2nc3sc4c(SCC(=O)NC(c5ccccc5)c5ccccc5)ncnc4c3cc2CO1 | > 40 µM (inactive)

SMILES | IC50
CCCC1(c2ccccc2)NC(=O)N(CC(=O)Nc2sc(-c3ccccc3)cc2C(=O)OCC)C1=O (stereo not given) | inactive
COc1ccc(Oc2c(Cl)cnn(CC(=O)C(c3ccccc3)c3ccccc3)c2=O)cc1 | 0.779 µM
CCOc1ccc2nc(SCC(=O)N3c4ccccc4Sc4ccccc43)c(C#N)cc2c1 | 6.88 µM
COc1ccc(C(C)=O)cc1CSc1nc2ccccc2c(=O)n1-c1cccc(C)c1 | 2.17 µM
CCOc1ccc2nc(N/C(N)=N/C(=S)Nc3cccc(C)c3)nc(C)c2c1 | 8.37 µM
Cc1c(Cl)cccc1NC(=O)Cn1cc(C(F)(F)F)cc(Cl)c1=O | > 40 µM (inactive)
COC(=O)c1cc(-c2cc3ccccc3s2)c(=O)n2c1CCC2 | 7.41 µM
Cc1[nH]c2ccccc2c1/C=C/c1cc[n+](C)cc1 | 4.41 µM
Cc1ccc(CNC(=O)c2cc3c(=O)n(C)c4ccccc4c3n2C)cc1 | inactive
O=C(CSc1ncnc2c1oc1ccccc12)Nc1cccc(Cl)c1 | 4.59 µM
Nc1ccc2cc3ccc(N)cc3nc2c1 | > 40 µM (inactive)
Cc1nn(C)cc1N1C(=O)c2cccc3c(N)ccc(c23)C1=O | inactive
O=[N+]([O-])c1ccc(N(c2ccccc2)c2ccccc2)cc1 | 4.62 µM
O=C(Nc1ccccc1C(F)(F)F)OCCN1C(=O)CCC12CCC(c1ccccc1)CC2 (stereo not given) | 7.99 µM
CCc1cc2ccc(OC)cc2nc1SCC(=O)Nc1cc(C)on1 | > 40 µM (inactive)
CC(C)(C)c1ccc(C(=O)c2c[nH]c(C(=O)NCc3cccs3)c2)cc1 | 3.88 µM
Cc1ccsc1C(=O)Nc1ccc(O)c(-c2nc3ccccc3s2)c1 | 6.87 µM
CCC(C)(C)c1ccc(OCCCC[n+]2cccc(C)c2)c(C(C)(C)CC)c1 | 4.39 µM
CC(NC(=O)c1ccc(-c2cc(C(F)(F)F)ccc2Cl)o1)c1ccccc1 (stereo not given) | > 40 µM (inactive)
Cc1ccc(-c2nnc(NCc3nc4ccccc4[nH]3)c3ccccc23)cc1S(=O)(=O)N(C)C | inactive
N#CC1=C(SCC(N)=O)NC2=C(C(=O)c3ccccc32)C1c1ccc(Cl)cc1 (stereo not given) | 7.01 µM
CCSc1nnc(NC(=O)c2cc3c(s2)CCCC3)s1 | 1.58 µM
COc1ccc2nc(SC)c(C#N)cc2c1 | inactive
Cc1cc(C)c2nc(SCC(=O)NCC3CCCO3)c(C#N)cc2c1 (stereo not given) | inactive
CC(C)(C)C(=O)Nc1cc(S(=O)(=O)N2CCCCC2)ccc1N1CCCCC1 | > 40 µM (inactive)
COC(=O)c1ccccc1-c1c2ccc(=N)cc-2oc2cc(N)ccc12 | > 40 µM (inactive)
CCN1/C(=C/c2ccc3cc(C)cc(C)c3[n+]2CC)Sc2cc(C)ccc21 | > 40 µM (inactive)

SMILES | IC50
C=CCNC(=O)c1ccc(Cn2c(=S)[nH]c3cc4c(cc3c2=O)OCO4)cc1 | inactive
C/C(=N\NC(=O)COc1cccc(C)c1)c1ccc2ccccc2c1O | 7.63 µM
COc1ccccc1C(=O)Nc1ccc2oc(-c3ccc(F)cc3)nc2c1 | 0.436 µM
N#Cc1c(N)nc2c3c(sc(=N)c2c1N)NC(=O)CC3c1c(F)cccc1Cl (stereo not given) | 0.78 µM
CCOC(=O)c1ccc2nc(Nc3nc4ccc(F)cc4s3)sc2c1 | 7.02 µM
O=C1c2cccc3c(N4CCCCC4)ccc(c23)C(=O)N1c1ccccc1O | 5.32 µM
COc1ccc(S(=O)(=O)N2CCCCCC2)cc1C(=O)Nc1ccc(C)cn1 | > 40 µM (inactive)
N#Cc1c(N)nc(SCC(=O)NCc2ccc3c(c2)OCO3)c(C#N)c1-c1cccs1 | 2.41 µM
C/C=C(/C(=C/C)c1ccc(O)cc1)c1ccc(O)cc1 | > 40 µM (inactive)
O=c1c2ccccc2nc2sc(Nc3cccc(Cl)c3)nn12 | 3.87 µM
CCc1cc2cc(C(=O)Nc3ccc(F)cc3)sc2s1 | 7.03 µM
Cc1[nH]nc2nc(SCC(=O)NCCC3=CCCCC3)n(-c3ccc(Br)cc3)c(=N)c12 | > 40 µM (inactive)
CCNC(=O)Nc1ccc2c(c1)C(=O)N(C)[C@H]1CC[C@H](CC(=O)N[C@H](C)c3ccccc3)O[C@@H]1CO2 | inactive
Fc1cccc2sc(Nc3nc4c(F)cccc4s3)nc12 | 4.6 µM
Cc1nc(SCc2nc3ccccc3[nH]2)c2oc3cc(Br)ccc3c2n1 | 9.38 µM
Cc1cc(C)cc(OCc2nc3ncc(Br)cc3[nH]2)c1 | 2.43 µM
COc1ccc(Cc2nc3ccccc3n2CC(=O)N/N=C/c2ccc(C)cc2O)cc1OC | 5.85 µM
CCn1c2ccccc2c2cc(C3C(C#N)=C(C)NC(C)=C3C#N)ccc21 | > 40 µM (inactive)
CCN(CC)C(=O)c1ccc(/C=C/c2c[nH]c3ccccc23)[n+](C)c1 | inactive
c1cnc(SCC2CCCCC2)c(-c2nc3ccccc3[nH]2)c1 | 7.2 µM
O=C1c2cccc3c(O)ccc(c23)C(=O)N1Cc1ccco1 | inactive
COc1ccc(CCn2c(-c3ccc(OC)cc3)nc3c(c(=O)c4ccccc4n3C)c2=O)cc1 | 7.79 µM
Cc1nc(SCC(=O)NCCc2ccccc2)c2oc3ccccc3c2n1 | 4.25 µM
CC(=O)c1cc2c(cc1N/C(=N/S(=O)(=O)c1ccccc1)c1ccc(Cl)cc1)OCO2 | inactive
O=[N+]([O-])c1ccc(N2CCCC2)c2ccncc12 | > 40 µM (inactive)
COc1ccc(C(=O)Nc2scc(-c3ccc(Cl)cc3Cl)c2C(N)=O)cc1 | inactive
Cc1cc(-c2ccccc2)nc2oc3c(c12)NC(=O)CN(c1ccccc1)C3=O | 0.378 µM

SMILES | IC50
COc1ccc(-n2nc(C(=O)NCC(=O)Nc3cc(Cl)c(OC)cc3OC)c3ccccc3c2=O)cc1 | inactive
COc1ccc(-c2nnc(NC(=O)C(C)C)s2)c(OC)c1 | inactive
COC(=O)c1cccc(Cn2ccc3ccc(-c4ccc5ccn(C(=O)c6ccc(C)cc6)c5c4)cc32)c1 | > 40 µM (inactive)
Cc1cc2nc3c(=O)n(CCc4ccccc4)c(=O)[nH]c3nc2cc1N | > 40 µM (inactive)
Cc1ccc2cc(-c3noc(C4CCCCC4)n3)c(=O)[nH]c2c1 | inactive
Cc1ccc(-c2nc3c(c(=O)c4ccccc4n3C)c(=O)n2-c2ccc(F)cc2)cc1 | > 40 µM (inactive)
CCN(c1cccc(C)c1)S(=O)(=O)c1cc2c3c(c1)CCC(=O)N3CCC2 | inactive
Cc1ccccc1NC(=O)c1sc(NC(=O)COc2ccccc2)c(C#N)c1C | > 40 µM (inactive)
Cc1ccc(C(=O)CSc2nc3ccccc3c(=O)n2-c2ccccc2)s1 | 7.75 µM
CCN1C(=O)/C(=C/C=C2/SCCN2C)SC1=S | inactive
COc1cc(OC)cc(-n2c3nc4ccccc4nc3c3c(=O)n(CC4CCCO4)cnc32)c1 (stereo not given) | 4.12 µM
CC(=O)Nc1ccc(O)c(-c2nc3ccccc3s2)c1 | inactive
Cc1ccc(C(=O)Nc2nc3ccccc3c(=O)s2)cc1 | 0.599 µM
O=C(Nc1cccc(C(F)(F)F)c1)c1cc(Br)cc2c1OCC2 | > 40 µM (inactive)
C=CCn1c(SCC(=O)Nc2cc(C)on2)nc2sc(C)c(C)c2c1=O | 5.14 µM
COc1ccc(-c2cc(-c3ccc(OC)cc3)c(C#N)c(SC)n2)cc1 | 8.29 µM
Brc1ccc2ncc(Br)cc2c1 | 4.22 µM
N#Cc1cccc(Cn2ccc3ccc(-c4ccc5ccn(Cc6cccc(C#N)c6)c5c4)cc32)c1 | 0.544 µM
Nc1ccc2nc3c(=O)n(CCc4ccccc4)c(=O)[nH]c3nc2c1 | 2.89 µM
Cc1cc(NC(=O)CSc2nc3cc(C)c(C)cc3cc2C)no1 | > 40 µM (inactive)
COc1cccc(NC(=O)CSc2nc3ncc(Br)cc3[nH]2)c1 | 1.3 µM
Cc1nonc1NC(=O)CSc1nc2c(C)cccc2cc1C#N | > 40 µM (inactive)
Cn1c(=O)c(Nc2ccc(O)cc2)c2c3c(cccc31)C(=O)c1ccccc1-2 | 6.77 µM
COc1ccc2c(c1)c(=O)oc1cc(OCC(=O)NC3CC3)ccc12 | 6.09 µM
